Measured values reported in the supplement of paper PMC10307832.

Tests used:
Test in all cases: relative viability (nuclei count vs DMSO), 5 days (fraction); higher = more cells survive
[1] = compound: O=C(NC1CCNCC1)c1n[nH]cc1NC(=O)c1c(Cl)cccc1Cl [AT-7519] + CC(C)C[C@H](NC(=O)[C@H](Cc1ccccc1)NC(=O)c1cnccn1)B(O)O [Bortezomib] (partner 0.002 µM)
How it was run: (§1)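 Lung cancer cell lines in 1536-well plates were dosed by pin tool the day after seeding, either with one drug alone or with a fixed anchor-drug dose plus five library-drug doses (not always all listed) in √10 steps. After 5 days, cells were fixed and their nuclei stained in one step (final 0.05% Triton X-100, 1% formaldehyde, 1 ug/ml Hoechst), then counted on 4× images. Relative viability is the nuclei count in treated wells divided by that in vehicle wells. Values are medians of duplicate plates.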

[2] = compound: C1=CC2=C(C=C(C(=C2N=C1)O)N=NC3=CC4=C(C=C3)C=C(C=C4)S(=O)(=O)O)S(=O)(=O)O + Cc1nc(NC(=O)N2CCC[C@H]2C(N)=O)sc1-c1ccnc(C(C)(C)C(F)(F)F)c1 [Alpelisib] (partner 2 µM)
How it was run: as §1

[3] = compound: C1=CC2=C(C=C(C(=C2N=C1)O)N=NC3=CC4=C(C=C3)C=C(C=C4)S(=O)(=O)O)S(=O)(=O)O
How it was run: (§2)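 Following overnight incubation at 37 °C, lung cancer cell lines in 1536-well plates were pinned with five library-drug doses (not always all listed) in √10 steps on vehicle-anchored plates. The cells then spent 5 days without medium change before a combined fix, permeabilisation and Hoechst stain, 4× imaging and MetaXpress nuclear counts. Viability is the treated-to-vehicle ratio of nuclei, taken as the median across plates. Only plates with control CV below 25% and at least one doubling passed.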

[4] = compound: O=C(NC1CCNCC1)c1n[nH]cc1NC(=O)c1c(Cl)cccc1Cl [AT-7519]
How it was run: as §2

Row | Cell Line | relative viability ([1]; first compound 0.01 µM) | relative viability ([1]; first compound 0.03162 µM) | relative viability ([1]; first compound 0.3162 µM) | relative viability ([1]; first compound 1 µM) | relative viability ([2]; first compound 0.08 µM) | relative viability ([2]; first compound 0.253 µM) | relative viability ([2]; first compound 0.8 µM) | relative viability ([2]; first compound 2.53 µM) | relative viability ([2]; first compound 8 µM) | relative viability ([3]; 0.08 µM) | relative viability ([3]; 0.253 µM) | relative viability ([3]; 0.8 µM) | relative viability ([3]; 2.53 µM) | relative viability ([3]; 8 µM) | relative viability ([4]; 0.01 µM) | relative viability ([4]; 0.03162 µM) | relative viability ([4]; 0.3162 µM) | relative viability ([4]; 1 µM)
1 | NCI-H1975 | 0.352 | 0.301 | 0.433 | 0.202 | 0.741 | 0.653 | 0.603 | 0.645 | 0.649 | 1.01 | 0.948 | 0.989 | 1.01 | 0.924 | 1.04 | 0.849 | 0.879 | 0.442
2 | CAL-12T |  | 0.929 | 0.593 | 0.336 | 1.85 | 1.13 | 1.08 | 1.29 | 1.13 | 1.08 | 0.986 | 0.928 | 1.09 | 0.932 | 0.98 | 1.06 | 0.552 | 0.256
3 | NCI-H1623 |  |  |  |  |  |  |  |  |  | 0.925 | 0.995 | 0.953 | 1.06 | 0.852 | 0.982 | 0.934 | 1.05 | 0.773
4 | HCC-44 | 0.752 | 1.02 | 1.01 | 0.979 | 0.867 | 0.786 | 0.779 | 0.893 | 0.893 | 1.02 | 0.959 | 0.952 | 1.05 | 1 | 0.992 | 0.99 | 1.05 | 1.05
5 | EKVX | 0.978 | 0.911 | 0.996 | 1.13 | 1.01 | 0.849 | 0.793 | 0.85 | 0.903 | 0.973 | 0.918 | 0.905 | 1.01 | 0.864 | 0.948 | 0.911 | 0.939 | 1.03
6 | NCI-H1651 | 0.912 | 0.917 | 0.971 | 0.974 | 1.09 | 1.02 | 1.16 | 1.08 | 0.895 | 1.03 | 0.966 | 0.961 | 0.991 | 0.931 | 0.959 | 0.897 | 1.02 | 0.997
7 | NCI-H1944 |  |  |  |  | 0.842 | 0.718 | 0.832 | 0.858 | 0.838 | 1.03 | 0.901 | 0.944 | 0.955 | 0.835 | 0.909 | 0.898 | 0.921 | 0.87
8 | NCI-H1703 | 0.392 | 0.323 | 0.182 | 0.151 | 0.369 | 0.266 | 0.39 | 0.385 | 0.409 | 0.942 | 0.772 | 0.99 | 0.884 | 1.04 | 0.865 | 0.845 | 0.866 | 0.261
9 | NCI-H358 |  |  |  |  | 0.902 | 0.927 | 0.776 | 0.833 | 0.354 | 1.08 | 0.978 | 0.841 | 0.943 | 1.01 | 0.889 | 0.86 | 0.85 | 0.31
10 | NCI-H1793 |  |  |  |  | 0.871 | 0.706 |  | 0.858 | 0.652 | 1.1 | 0.967 | 0.859 | 1.02 | 0.843 | 0.854 | 0.9 | 0.905 | 0.832
11 | ChaGo-K-1 | 1.03 | 1.37 | 0.763 | 0.96 |  |  |  |  |  | 1.03 | 0.905 | 0.937 | 1.02 | 0.901 | 1.01 | 0.926 | 0.996 | 0.942
12 | NCI-H2342 |  |  |  |  |  |  |  |  |  | 0.991 | 0.989 | 0.841 | 1.04 | 0.876 | 0.909 | 0.96 | 0.906 | 0.92
13 | NCI-H1650 | 0.19 | 0.203 | 0.183 | 0.194 |  |  |  |  |  | 0.893 | 0.93 | 0.875 | 0.993 | 0.773 | 0.985 | 1.03 | 0.88 | 0.328
14 | SW 900 |  |  |  |  |  |  |  |  |  | 1.07 | 0.971 | 0.802 | 0.918 | 0.841 | 0.771 | 0.866 | 0.786 | 0.657
15 | SK-MES-1 |  |  |  |  | 0.987 | 0.845 | 0.824 | 0.944 | 0.847 | 1.03 | 0.967 | 0.968 | 0.987 | 1.02 | 1.02 | 0.968 | 1 | 0.771
16 | NCI-H1648 |  |  |  |  |  |  |  |  |  | 0.747 | 0.816 | 0.677 | 0.682 | 1.04 | 0.877 |  | 0.832 | 0.711
17 | NCI-H522 |  |  |  |  |  |  |  |  |  | 0.965 | 0.984 | 0.872 | 1.02 | 0.774 | 0.814 | 0.933 | 0.873 | 0.897
18 | LK-2 |  |  |  |  | 1.12 | 1.1 | 1.12 | 1.08 | 0.935 | 1.05 | 0.973 | 0.876 | 0.911 | 0.797 | 0.961 | 0.934 | 0.857 | 0.682
19 | NCI-H1395 |  |  |  |  | 1.08 | 1.21 | 1.09 | 1.06 | 1.23 | 0.9 | 0.939 | 0.843 | 0.976 | 0.899 | 0.934 | 0.998 | 0.816 | 0.665
20 | A549 |  |  |  |  | 0.733 | 0.708 | 0.665 | 0.728 | 0.662 | 1.1 | 0.986 | 0.926 | 1 | 0.884 | 0.978 | 0.903 | 0.931 | 0.792
21 | NCI-H2170 |  |  |  |  | 0.872 | 0.802 | 0.78 | 0.82 | 0.76 | 1.07 | 0.988 | 0.97 | 1.02 | 0.932 | 0.967 | 0.964 | 1.02 | 0.991
